What all share (assay type): in vivo
One assay concerns Phytophthora infestans. Put plainly: whole plant or invertebrate. To be noted: tomato late blight; control value vs untreated section.
For assay [1], the system named is Pseudoperonospora cubensis. Briefly: Test 2: control effect against cucumber downy mildew. The settings on record: control value vs untreated section. As for the experimental part:
(§1) A 10% wettable powder created according to the Pharmaceutical Formulation Example 1 was diluted with a Tween20 solution prepared to a concentration of 1/5000, then the compound of formula [1] was prepared to a concentration of 4 ppm. Further, the compound of formula [1] in Test 4 was adjusted to a concentration of 1,000 ppm.
<Test 2 Test of Control Effect Against Cucumber Downy Mildew>
(§2) Test suspension was applied to cucumber at the 2 leaf stage (species: Sagami hanjiro) in an amount of 20 ml per seedling. One day after application, zoospore suspension of Pseudoperonospora cubensis adjusted to a concentration of 1.0×10^4 units/ml was misted/inoculated, and the seedlings were incubated in a moist chamber adjusted to 22° C. for 16 hr. Then, the onset of the disease was induced in the chamber, and the lesion area rate on the leaves 5 days after inoculation was investigated to compute the control value using the formula below. control value={1−onset area rate of the leaves that were applied the test agent/onset area rate of untreated leaves}×100 Computational formula of the control value: […]

Another assay deals with Plasmopara viticola. Put plainly: Test 3: control effect against grape downy mildew. To be noted: control value vs untreated section. As for the experimental part: as §1
<Test 3 Test of Control Effect Against Grape Downy Mildew>
as §2, with “grape seedling” for “cucumber at the 2 leaf stage”, “Neomuscat)” for “Sagami hanjiro)”, “Plasmopara viticola” for “Pseudoperonospora cubensis”

Results on 14 compounds are retold here after US10104891B2 (priority 2014, dated 2018).

Structures are written as SMILES.

Regarding `CC1OC(c2csc(C3CCN(C(=O)Cn4nc(C(F)F)cc4C(F)F)CC3)n2)OCc2ccccc21` (mixture of isomers) [Compound 1-75], the “control value (Test 1)” value with Phytophthora infestans turned out to be 100. Further, the “control value (Test 2)” value in assay [1] stood at 100. In addition, the “control value (Test 3)” value with Plasmopara viticola is listed as 100.

`Cc1cc(C(F)(F)F)nn1CC(=O)N1CCC(c2nc(C3OCc4ccccc4CO3)cs2)CC1` [Compound 1-1]: the “control value (Test 1)” value with Phytophthora infestans was determined as 100. In assay [1], the “control value (Test 2)” value turned out to be 100. Also, the “control value (Test 3)” value in the assay with Plasmopara viticola came out at 100.

Consider `Cc1cc(C(F)(F)F)nn1CC(=O)N1CCC(c2nc(C3OCc4cccc(F)c4CO3)cs2)CC1` (stereo not drawn) [Compound 1-2], for which the “control value (Test 1)” value in the assay with Phytophthora infestans is 100. In assay [1], the “control value (Test 2)” value is 100. Also, the “control value (Test 3)” value in the assay with Plasmopara viticola is recorded as 100.

Take `Cc1cc2c(cc1C)COC(c1csc(C3CCN(C(=O)Cn4nc(C(F)(F)F)cc4C)CC3)n1)OC2` [Compound 1-4]: the “control value (Test 1)” value with Phytophthora infestans worked out at 100. Besides, in assay [1], the “control value (Test 2)” value came to 100. Besides, the “control value (Test 3)” value in the assay with Plasmopara viticola is given as 100.

Take `Cc1cc(C(F)(F)F)nn1CC(=O)N1CCC(c2nc(C3OCc4cc(Cl)c(Cl)cc4CO3)cs2)CC1` [Compound 1-5]: the “control value (Test 1)” value in the assay with Phytophthora infestans is on record as 100. In addition, in assay [1], the “control value (Test 2)” value worked out at 100. For the same compound, in the assay with Plasmopara viticola, the “control value (Test 3)” value is given as 100.

On to `CCS(=O)(=O)Oc1cccc2c1COC(c1csc(C3CCN(C(=O)Cn4nc(C(F)(F)F)cc4C)CC3)n1)OC2` (stereo not drawn) [Compound 1-7], for which the “control value (Test 1)” value with Phytophthora infestans turned out to be 100. In addition, the “control value (Test 2)” value in assay [1] is on record as 100. Further, the “control value (Test 3)” value in the assay on Plasmopara viticola is recorded as 100.

On to `Cc1cc(C(F)(F)F)nn1CC(=O)N1CCC(c2nc(C3OCc4ccc(OS(C)(=O)=O)cc4CO3)cs2)CC1` (stereo not drawn) [Compound 1-9], for which the “control value (Test 1)” value in the assay on Phytophthora infestans worked out at 100. Also, the “control value (Test 2)” value in assay [1] turned out to be 80. For the same compound, the “control value (Test 3)” value in the assay with Plasmopara viticola is on record as 100.

As for `Cc1cc(C(F)(F)F)nn1CC(=O)N1CCC(c2nc(C3OCc4cc5ccccc5cc4CO3)cs2)CC1` [Compound 1-10, 4-[4-(1,5-dihydro-3H-2,4-naphthodioxepin-3-yl)-2-thiazolyl]-1-[2-[5-methyl-3-(trifluoromethyl)-1H-pyrazole-1-yl]acetyl]piperidine], in the assay on Phytophthora infestans, the “control value (Test 1)” value was 100. In addition, in assay [1], the “control value (Test 2)” value came out at 100. Besides, the “control value (Test 3)” value in the assay with Plasmopara viticola is 100.

`Cc1cc(C(F)(F)F)nn1CC(=O)N1CCC(c2nc(C3OCc4cccc([N+](=O)[O-])c4CO3)cs2)CC1` (stereo not drawn) [Compound 1-12]: the “control value (Test 1)” value in the assay on Phytophthora infestans was found to be 100. Further, in assay [1], the “control value (Test 2)” value is listed as 100. Also, the “control value (Test 3)” value with Plasmopara viticola is given as 100.

Turning to `Cc1cc(C(F)(F)F)nn1CC(=O)N1CCC(c2nc(C3OCc4cccc(OS(=O)(=O)C5CC5)c4CO3)cs2)CC1` (stereo not drawn) [Compound 1-13], the “control value (Test 1)” value in the assay on Phytophthora infestans was 100. In addition, in assay [1], the “control value (Test 2)” value is reported as 100. Further, the “control value (Test 3)” value in the assay with Plasmopara viticola came to 100.

Take `Cc1cccc2c1COC(c1csc(C3CCN(C(=O)Cn4nc(C(F)(F)F)cc4C)CC3)n1)OC2` (stereo not drawn) [Compound 1-14]: the “control value (Test 1)” value in the assay with Phytophthora infestans is recorded as 100. Also, in assay [1], the “control value (Test 2)” value amounted to 100. Besides, in the assay on Plasmopara viticola, the “control value (Test 3)” value is given as 100.

On to `Cc1cc(C(F)(F)F)nn1CC(=O)N1CCC(c2nc(C3OCc4ccc(C(F)(F)F)cc4CO3)cs2)CC1` (stereo not drawn) [Compound 1-16], for which the “control value (Test 1)” value with Phytophthora infestans turned out to be 100. Also, the “control value (Test 2)” value in assay [1] is listed as 100. Further, the “control value (Test 3)” value with Plasmopara viticola was 100.

For `Cc1cc(C(F)(F)F)nn1CC(=O)N1CCC(c2nc(C3OCc4c(F)c(F)c(F)c(F)c4CO3)cs2)CC1` [Compound 1-17], the “control value (Test 1)” value with Phytophthora infestans is 100. In addition, in assay [1], the “control value (Test 2)” value is recorded as 100. Besides, the “control value (Test 3)” value in the assay with Plasmopara viticola is given as 100.

As for `Cc1cc(C(F)(F)F)nn1CC(=O)N1CCC(c2nc(C3OCc4ccccc4C(C)O3)cs2)CC1` (stereo not drawn) [Compound 1-18], the “control value (Test 1)” value in the assay with Phytophthora infestans is given as 100. For the same compound, the “control value (Test 2)” value in assay [1] was 100. Further, the “control value (Test 3)” value in the assay on Plasmopara viticola is 100.
